Earlier results on 26 molecules are cited in patent publication US20080124279A1, “Colonic delivery using Zn/pectin beads with a Eudragit coating” (priority 2006, published 2008).

Read-outs that look alike come from different tables or passages of the source. A value given as a limit tells only on which side of the number the result lay.

Among the targets are L-1(wt) (Stenotrophomonas maltophilia, UniProt P52700); IMP-1 (Serratia marcescens, UniProt P52699); VIM-2 (Escherichia coli, UniProt Q5U7L7).

Sequence of IMP-1 (P52699 19-246 limits assumed): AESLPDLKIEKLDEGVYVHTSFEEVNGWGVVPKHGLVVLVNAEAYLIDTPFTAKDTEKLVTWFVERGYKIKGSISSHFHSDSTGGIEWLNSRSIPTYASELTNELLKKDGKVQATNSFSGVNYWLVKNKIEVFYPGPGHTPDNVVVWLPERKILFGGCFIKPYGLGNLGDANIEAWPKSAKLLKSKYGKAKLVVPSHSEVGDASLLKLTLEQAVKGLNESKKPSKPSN
Sequence of L-1(wt) (P52700 34-290): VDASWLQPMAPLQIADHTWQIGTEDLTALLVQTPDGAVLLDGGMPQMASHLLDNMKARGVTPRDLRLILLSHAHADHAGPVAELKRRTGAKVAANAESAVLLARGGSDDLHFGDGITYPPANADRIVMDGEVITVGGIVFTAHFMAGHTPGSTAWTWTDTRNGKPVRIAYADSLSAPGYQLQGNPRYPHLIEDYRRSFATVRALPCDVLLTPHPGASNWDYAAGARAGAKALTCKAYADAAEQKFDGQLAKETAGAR

On to `CC1(C)S[C@@H]2[C@H](NC(=O)[C@H](N)c3ccccc3)C(=O)N2[C@H]1C(=O)O` [Ampicillin], for which the Kcat at L-1(wt) is 520 s⁻¹; on IMP-1, 950 s⁻¹; in the series on FEZ-1, >5.5 s⁻¹. The Michaelis-Menten constant (Km) (as a rule, the concentration of substrate that gives half-maximal velocity) on L-1(wt) is 55 µM; on IMP-1, 200 µM; on VIM-2, 90 µM; in the series with FEZ-1 it was > 5000 µM.
On to `CC1(C)S[C@@H]2[C@H](NC(=O)[C@H](NC(=O)N3CCNC3=O)c3ccccc3)C(=O)N2[C@H]1C(=O)O` [Azlocillin], for which, on VIM-2, the Kcat was 200 s⁻¹ and the Km was 200 µM.
As to `C[C@H]1[C@H](NC(=O)/C(=N\OC(C)(C)C(=O)O)c2csc(N)n2)C(=O)N1S(=O)(=O)O` [Aztreonam], the Kcat on IMP-1 was >0.01 s⁻¹; on VIM-2 it was <0.01 s⁻¹. The Km on IMP-1 and at VIM-2 was > 1000 µM throughout.
For the molecule `CC1(C)S[C@@H]2[C@H](NC(=O)Cc3ccccc3)C(=O)N2[C@H]1C(=O)O` [Benzylpenicillin], the Kcat on L-1(wt) is 600 s⁻¹; on IMP-1, 320 s⁻¹; on VIM-2, 56 s⁻¹; in the series with FEZ-1, 70 s⁻¹. The Km at L-1(wt) is 38 µM; at IMP-1, 520 µM; at VIM-2, 49 µM; in the series with FEZ-1 it was 590 µM.
In the case of `C[C@@H](O)[C@H]1C(=O)N2C(C(=O)[O-])=C(SC3Cn4cnc[n+]4C3)[C@H](C)[C@H]12` (stereo partly drawn) [Biapenem], the Kcat on L-1(wt) was 134 s⁻¹; on IMP-1 it was 160 s⁻¹; on VIM-2, 8.5 s⁻¹; with FEZ-1 it was 70 s⁻¹. Besides, the Michaelis-Menten constant (Km) at L-1(wt) is 32 µM; at IMP-1, 28 µM; on VIM-2, 15 µM; in the series on FEZ-1, > 1000 µM.
On to `CC1(C)S[C@@H]2[C@H](NC(=O)C(C(=O)O)c3ccccc3)C(=O)N2[C@H]1C(=O)O` (stereo partly drawn) [Cabenicillin], for which the results for the Kcat on VIM-2 and in the series on FEZ-1 were 185 s⁻¹ and 35 s⁻¹, respectively. For the same molecule, the Km is 205 µM on VIM-2 (read-out: Km) and 1600 µM in the series with FEZ-1.
Take `NC(=O)OC[C@@H]1[C@H](NC(=O)/C(=N\OCC(=O)O)c2csc(N)n2)C(=O)N1S(=O)(=O)O` [Carumonam]: at IMP-1, the Kcat is >0.01 s⁻¹ and the Michaelis-Menten constant (Km) was > 1000 µM.
For `CO/N=C(\C(=O)N[C@@H]1C(=O)N2C(C(=O)[O-])=C(C[N+]3(C)CCCC3)CS[C@H]12)c1csc(N)n1` [Cefepim], the Kcat at IMP-1 was 7 s⁻¹; at VIM-2, >40 s⁻¹; in the series with FEZ-1, >6 s⁻¹. Further, the Km was 11 µM at IMP-1 (read-out: Km), > 400 µM at VIM-2 (read-out: Km) and > 1000 µM in the series with FEZ-1.
Turning to `CO/N=C(\C(=O)N[C@@H]1C(=O)N2C(C(=O)O)=C(COC(C)=O)CS[C@H]12)c1csc(N)n1` [Cefotaxim], the Kcat was 270 s⁻¹ on L-1(wt), 1.3 s⁻¹ on IMP-1, 70 s⁻¹ at VIM-2 and 165 s⁻¹ in the series on FEZ-1. Further, the Km is 10 µM at L-1(wt), 4 µM at IMP-1 (read-out: Km), 12 µM at VIM-2 (read-out: Km) and 70 µM with FEZ-1.
With `CO[C@@]1(NC(=O)Cc2cccs2)C(=O)N2C(C(=O)O)=C(COC(N)=O)CS[C@@H]21` [Cefoxitin], the figures for the Kcat at L-1(wt) and at VIM-2 were 1 s⁻¹ and 15 s⁻¹, respectively. In addition, the Michaelis-Menten constant (Km) at L-1(wt) is 3 µM; at VIM-2 it was 13 µM.
On to `CO/N=C(\C(=O)N[C@@H]1C(=O)N2C(C(=O)[O-])=C(C[n+]3cccc4c3CCC4)CS[C@H]12)c1csc(N)n1` [Cefpirom], for which the Kcat is 9 s⁻¹ at IMP-1 and 180 s⁻¹ at VIM-2. Besides, the Michaelis constant (Km) was 14 µM on IMP-1 (read-out: Km) and 180 µM at VIM-2 (read-out: Km).
`CC(C)(O/N=C(\C(=O)N[C@@H]1C(=O)N2C(C(=O)[O-])=C(C[n+]3ccccc3)CS[C@H]12)c1csc(N)n1)C(=O)O` [Ceftazidin]: the results for the Kcat at IMP-1 and at VIM-2 were 8 s⁻¹ and 3.6 s⁻¹, respectively. Also, the Michaelis-Menten constant (Km) at IMP-1 (read-out: Km) was 44 µM; at VIM-2 (read-out: Km), 72 µM.
As for `CO/N=C(\C(=O)N[C@@H]1C(=O)N2C(C(=O)O)=C(COC(N)=O)CS[C@H]12)c1ccco1` [Cefuroxin], on VIM-2, the Kcat was 8 s⁻¹. Moreover, at VIM-2 (read-out: Km), the Km is 20 µM.
With `O=C(Cc1cccs1)N[C@@H]1C(=O)N2C(C(=O)[O-])=C(C[n+]3ccccc3)CS[C@H]12` [Cephaloridin], the Kcat on IMP-1 was 53 s⁻¹; on VIM-2, 140 s⁻¹; with FEZ-1, 16 s⁻¹. Further, the values for the Michaelis constant (Km) at IMP-1 (read-out: Km), at VIM-2 (read-out: Km) and in the series with FEZ-1 were 22 µM, 50 µM and 1000 µM, respectively.
For `CC(=O)OCC1=C(C(=O)O)N2C(=O)[C@@H](NC(=O)Cc3cccs3)[C@H]2SC1` [Cephalothin], the Kcat on L-1(wt) was 82 s⁻¹; at IMP-1, 48 s⁻¹; at VIM-2, 130 s⁻¹. Also, the Michaelis-Menten constant (Km) on L-1(wt) is 8.9 µM; at VIM-2, 11 µM.
As for `O=C(O)[C@H]1/C(=C/CO)O[C@@H]2CC(=O)N21` [Clavulanic Acid], on L-1(wt), the Kcat was 11 s⁻¹ and the Km is 22 µM. In addition, in the series on FEZ-1, the Kcat is <0.01 s⁻¹ and the Km was > 1000 µM.
On to `C[C@@H](O)[C@H]1C(=O)N2C(C(=O)O)=C(SCCN=CN)C[C@H]12` [Imipenem], for which the values for the Michaelis-Menten constant (Km) at L-1(wt), at IMP-1 and on VIM-2 were 57 µM, 39 µM and 9 µM, respectively.
For the molecule `C[C@@H](O)[C@H]1C(=O)N2C(C(=O)O)=C(S[C@@H]3CN[C@H](C(=O)N(C)C)C3)[C@H](C)[C@H]12` [Meropenem], at L-1(wt), the Kcat was 157 s⁻¹ and the Michaelis constant (Km) is 15 µM. Further, at VIM-2, the Kcat is 5 s⁻¹ and the Km is 2 µM.
As for `CC1(C)S[C@@H]2[C@H](NC(=O)[C@H](NC(=O)N3CCN(S(C)(=O)=O)C3=O)c3ccccc3)C(=O)N2[C@H]1C(=O)O` [Mezlocillin], on VIM-2, the Kcat is 200 s⁻¹ and the Michaelis-Menten constant (Km) was 125 µM.
For `CO[C@@]1(NC(=O)C(C(=O)O)c2ccc(O)cc2)C(=O)N2C(C(=O)O)=C(CSc3nnnn3C)CO[C@@H]21` (stereo partly drawn) [Moxalactam], the Kcat at VIM-2 is 90 s⁻¹; in the series with FEZ-1, 3 s⁻¹. Moreover, the Michaelis constant (Km) was 55 µM at VIM-2 and 18 µM in the series on FEZ-1.
With `O=C(Cc1cccs1)N[C@@H]1C(=O)N2C(C(=O)O)=C(/C=C/c3ccc([N+](=O)[O-])cc3[N+](=O)[O-])CS[C@H]12` [Nitrocefin], the Kcat was 41 s⁻¹ at L-1(wt), 63 s⁻¹ at IMP-1, 770 s⁻¹ at VIM-2 and 90 s⁻¹ in the series with FEZ-1. The Km was 4 µM at L-1(wt), 18 µM at VIM-2 and 100 µM in the series with FEZ-1.
For the molecule `CCN1CCN(C(=O)N[C@@H](C(=O)N[C@@H]2C(=O)N3[C@@H]2SC(C)(C)[C@@H]3C(=O)O)c2ccccc2)C(=O)C1=O` [Pipericillin], the Kcat is 300 s⁻¹ on VIM-2 and 50 s⁻¹ in the series on FEZ-1. For the same molecule, the Michaelis-Menten constant (Km) is 125 µM at VIM-2 (read-out: Km) and 4200 µM with FEZ-1.
For `CC1(C)[C@H](C(=O)O)N2C(=O)C[C@H]2S1(=O)=O` [Sulbactam], the Kcat at VIM-2 was 23 s⁻¹. Further, the Km at VIM-2 (read-out: Km) is 320 µM.
Take `C[C@]1(Cn2ccnn2)[C@H](C(=O)O)N2C(=O)C[C@H]2S1(=O)=O` [Tazobactam]: on VIM-2, the Kcat was 28 s⁻¹ and the Km is 875 µM. Besides, in the series on FEZ-1, the Kcat was 40 s⁻¹ and the Km was 700 µM.
On to `CC1(C)S[C@@H]2[C@H](NC(=O)[C@H](C(=O)O)c3ccsc3)C(=O)N2[C@H]1C(=O)O` [Ticarcillin], for which the Kcat on IMP-1 was 1.1 s⁻¹; on VIM-2 it was 180 s⁻¹; in the series on FEZ-1, >65 s⁻¹. The values for the Michaelis constant (Km) on IMP-1, at VIM-2 and with FEZ-1 were 740 µM, 125 µM and > 5000 µM, respectively.
On to `CO[C@@]1(NC(=O)C(C(=O)O)c2ccsc2)C(=O)N2[C@@H](C(=O)O)C(C)(C)S[C@@H]21` (stereo partly drawn) [Timocillin], for which the results for the Km at IMP-1 (read-out: Km) and on VIM-2 (read-out: Km) were > 2000 µM and 390 µM, respectively. Moreover, on VIM-2, the Kcat was 7.7 s⁻¹.
